A value given as a limit tells only on which side of the number the result lay.

Holding throughout (assay type): functional, T cell line
Assay [1] is described as follows: Induction of anti-CD3 antibodies-stimulated human T cell activation at 8 uM assessed fold increase in IL-2 secretion measured by ELISA assay. Also: reference of the scale not given here. A general note: An ELISA detects its analyte on a solid surface through an enzyme-linked reagent.
Assay [2] can be described thus: Induction of anti-CD3/CD28 antibodies-stimulated human T cell activation at 1 uM assessed fold increase in IL-2 secretion measured by ELISA assay.
A short description of assay [3]: Induction of anti-CD3/CD28 antibodies-stimulated human T cell activation at 0.3 uM assessed fold increase in CD25 expression measured by ELISA assay.
A short description of assay [4]: Induction of anti-CD3 antibodies-stimulated human T cell activation at 8 uM assessed fold increase in CD25 expression measured by ELISA assay. Also: reference of the scale not given here.
Assay [5] in a line: Induction of anti-CD3/CD28 antibodies-stimulated human T cell activation at 1 uM assessed fold increase in CD25 expression measured by ELISA assay.
The nature of assay [6]: Induction of anti-CD3 antibodies-stimulated human T cell activation at 1 uM assessed fold increase in CD25 expression measured by ELISA assay. Also: reference of the scale not given here.
Assay [7] in a line: Induction of anti-CD3/CD28 antibodies-stimulated human T cell activation at 0.3 uM assessed fold increase in IL-2 secretion measured by ELISA assay.
Assay [8] is described as follows: Induction of anti-CD3 antibodies-stimulated human T cell activation at 1 uM assessed fold increase in IL-2 secretion measured by ELISA assay. Also: reference of the scale not given here.
Assay [9] in a line: Induction of anti-CD3/CD28 antibodies-stimulated human T cell activation at 4 uM assessed fold increase in IL-2 secretion measured by ELISA assay.
A short description of assay [10]: Induction of anti-CD3/CD28 antibodies-stimulated human T cell activation at 4 uM assessed fold increase in CD25 expression measured by ELISA assay.

On to `Cc1cc(C(=O)Nc2cccc([C@H]3C[C@H]3c3nncn3C)c2)nc(C2CC2)n1`, for which the “fold change (FC)” value in assay [1] is recorded as “>=0.201”; in assay [2], 2.51; in assay [3], 1.01; in assay [4], “>=1.001”; in assay [5] it was 1.01; in assay [6], 0.801. The “fold change (FC)” value in assay [7] is reported as 1.01; in [8] it was 0.101; in [9] it was 5; in [10] it was 1.01.
In the case of `Cn1cnnc1[C@H](F)[C@@](C)(F)c1cccc(N2Cc3c(cc(C4CC4)cc3C(F)(F)F)C2=O)c1` (single isomer, unassigned; 483), the “fold change (FC)” value in [1] turned out to be 0.051; in assay [2] it was 1.01; in assay [3] it was 1.01; in [4], 0.801; in [5] it was 1.01; in assay [6] it was 0.601. Besides, the “fold change (FC)” value in [7] is “<=1”; in [8] it was 0.051; in [9], 1.01; in assay [10] it was 1.01.
`Cn1cnnc1C(F)(F)[C@](C)(F)c1cccc(N2Cc3c(cc(-c4cncc(F)c4)cc3C(F)(F)F)C2=O)c1`: the “fold change (FC)” value in assay [1] was 0.151; in [2], 2.51; in assay [3], “<=1”; in assay [4] it was 0.801; in assay [5], 1.01; in assay [6], 0.601. In addition, the “fold change (FC)” value is given as 1.01 in assay [7], 0.101 in assay [8], 2.51 in assay [9] and 1.01 in assay [10].
With `C[C@H](Sc1nncn1C)c1cccc(NC(=O)c2cc(C(=O)N3CC(O)C3)ccn2)c1`, the “fold change (FC)” value in assay [1] is given as “<=0.05”; in assay [2], “<=1”; in [3], “<=1”; in [4] it was 0.601; in [5] it was “<=1”; in assay [6], “<=0.6”. The “fold change (FC)” value in [7] is “<=1”; in [8], “<=0.05”; in assay [9] it was “<=1”; in assay [10], “<=1”.
As to `COc1cc(C(=O)Nc2cccc([C@H](C)Cc3nncn3C)c2)nc(C(F)(F)F)c1`, the “fold change (FC)” value in [1] stood at 0.101; in assay [2], 1.01; in [3], 1.01; in assay [4], 0.801; in assay [5], 1.01; in assay [6], 0.801. Also, the “fold change (FC)” value in assay [7] was found to be 1.01; in assay [8], 0.101; in assay [9], 1.01; in assay [10], 1.01.
Take `C[C@@H](c1cccc(N2Cc3c(cccc3C(F)(F)F)C2=O)c1)[C@H](F)c1nncn1C` (racemic): the “fold change (FC)” value in assay [1] is given as 0.151; in assay [2], 1.01; in [3] it was 1.01; in assay [4], “>=1.001”; in assay [5] it was 1.01; in assay [6], 0.601. Besides, the “fold change (FC)” value in assay [7] came out at 1.01; in assay [8] it was 0.051; in [9], 2.51; in assay [10] it was 1.01.
Turning to `CNS(=O)(=O)c1cc(C(=O)Nc2cccc([C@H](C)Cc3nncn3C)c2)nc(C(F)(F)F)c1`, the “fold change (FC)” value in [1] is “>=0.201”; in assay [2], 1.01; in assay [3] it was 1.01; in [4] it was “>=1.001”; in [5], 1.01; in [6], 0.801. In addition, the “fold change (FC)” value in [7] is on record as 1.01; in [8], 0.151; in assay [9] it was “<=1”; in [10] it was 1.01.

These data come from ChEMBL document CHEMBL5050844 (2019).
